What was measured:
IL-22 = test: Multiplex (MSD V-PLEX) cytokine release, InflammaSkin: IL-22; assay type: cell-based, human; settings: Example 2; Day 7 supernatant; 1 μM Otezla or SCFA systemic, 0.05% Betamethasone topical; vs untreated InflammaSkin
Protocol: A total of 16 biopsies of 15 mm diameter were produced from a single donor. Two NativeSkin® models with 12/15 mm silicon rings were produced from the biopsies according to standard procedures in place, and cultured under cell culture conditions (37° C., 5% CO2, max. humidity) for 7 days with 2 mL of standard NativeSkin® medium renewed every day. Fourteen PSO-InflammaSkin® models with 12/15 mm silicon rings were produced by inducing in situ activation and Th17/Th1 polarization of skin resident T cells with a proprietary cocktail, and cultured under cell culture conditions (37° C., 5% CO2, max. humidity) for 7 days with 2 mL of PSO-InflammaSkin® culture medium renewed every day. […]
Human pro-inflammatory cytokines released in the supernatant were quantified using the V-PLEX Human IL-17A Kit (MesoScale Discovery, reference: K151RFD-1) and V-PLEX Human custom Pro-inflammatory. […]
Samples were diluted four times for plate 2 and two times for plate 1. Samples and standards were assessed in duplicate. Plates were read on MesoScale Discovery Quickpleax SQ 120 plate reader and values expressed in pg/mL.
A statistical analysis was performed. […] First, the distribution's normality of the two compared group was assessed. […] If the two distributions were normal, the homogeneity of variances was assessed using a Fisher test on the variances. […]

K16 = test: Anti-K16 immunostaining of InflammaSkin models; assay type: cell-based, human; settings: Example 1; Day 7; Day 1-6: 1 μM Otezla or SCFA (45 μg/mL Ca-propionate + 1 mM Ca-/Mg-butyrate) systemic, 0.05% Betamethasone topical
Protocol: A total of 16 biopsies of 15 mm diameter were produced from a single donor. Two NativeSkin® models with 12/15 mm silicon rings were produced from the biopsies according to standard procedures in place, and cultured under cell culture conditions (37° C., 5% CO2, max. humidity) for 7 days with 2 mL of standard NativeSkin® medium renewed every day. Fourteen PSO-InflammaSkin® models with 12/15 mm silicon rings were produced by inducing in situ activation and Th17/Th1 polarization of skin resident T cells with a proprietary cocktail, and cultured under cell culture conditions (37° C., 5% CO2, max. humidity) for 7 days with 2 mL of PSO-InflammaSkin® culture medium renewed every day.
From Day 1 to Day 6, models were systemically treated with 1 μM Otezla or Short Chain Fatty Acids (SCFAs), or topically treated with positive control 0.05% Betamethasone
In these experiments, the SCFAs administered were 45 μg/mL of Ca-propionate and 1 mM mixture of salts (Ca-butyrate and Mg-butyrate).
At Day 7, supernatants were collected and stored at −80° C. and skin models of all conditions were carefully unmolded. Skin biopsies were re-punched to eliminate the area under the silicon ring, fixed in 10% buffered formalin and processed for paraffin wax embedding. […]

[1] = test system: imiquimod (IMQ)-induced psoriasis model mice; test: Back skin scaling, IMQ-induced psoriasis model in mice; assay type: in vivo, mouse; settings: for skin scaling: Example 12
Protocol: Topical application of IMQ, a TLR7/8 ligand and potent immune activator induced and exacerbated psoriasis in mice. The mouse IMQ-induced psoriasis (IMQ Ps) model was initiated by a repeated topical application of Aldara© cream (containing 5% IMQ) over 6 consecutive days. Female Balb/c mice (9 weeks of age at reception, ordered with 20 g, Charles River, Sulzfeld, Germany; n=10 mice/group, exception healthy controls n=4) received daily a topical application of 62.5 mg of commercially available IMQ cream (5% Aldara©) on the beforehand (day −1) shaved (~2 cm×3 cm), depilated (Pilka© cream) back skin, and 7 mg on the outer right ear skin for 6 consecutive days, translating in a daily dose of approximately 3.5 mg IMQ. Healthy control mice were included in the study and were treated with vehicle cream (Vaseline; Bombastus-Werke AG) only instead of IMQ. Additionally, an IMQ disease control group was also included.
Disease Severity Score was evaluated on a daily base starting with the induction of psoriasis by IMQ application (day 0) until the end (day 6) of the study. The psoriasis severity on the back skin of the mice was evaluated by using a modified scoring system developed by van der Fits et al., based on the clinical PASI (psoriasis area and severity index) and takes skin erythema, scaling and skin thickening into account. Scoring was performed by the same lab technician throughout the experiment. Each parameter was scored independently on a scale from 0 to 3.
Before starting treatment on the day of disease induction (day 0), mice were randomized based on body weight to the respective group. To evaluate the anti-inflammatory efficacy of the two compounds in mouse IMQ psoriasis, mice were treated twice daily ([…] in sterile water; m/m/v) alone, with fixed dose of SCFA (in ddH2O) alone, […] dose of SCFA. Healthy and IMQ disease controls were orally treated in parallel with vehicle only. All treatments started with first application of IMQ on day 0.
Skin scaling, one of the disease severity score parameters, was evaluated in IMQ-treated mice (FIGS. 57-59).

For `CCOc1cc([C@@H](CS(C)(=O)=O)N2C(=O)c3cccc(NC(C)=O)c3C2=O)ccc1OC` [Otezla, Apremilast], the IL-22 secretion (IL-22) was “significantly reduced”, the “K16 expression in the epidermis” value (K16) was “decreased the expression of K16 in the epidermis” and the “back skin scaling (desquamation) over time” value ([1]; Example 9, Apremilast 25 mg/kg BID, SCFA fixed dose (120 mg/kg/day Ca-propionate + 1,100 mg/kg/day Ca-/Mg-butyrate), alone or combined, oral) was “able to inhibit the skin scaling from day 3 to day 5”. For the same compound, the “cumulative evaluation of skin scaling over the entire course of the study” value ([1]; Example 9, Apremilast 25 mg/kg BID, SCFA fixed dose (120 + 1,100 mg/kg/day), alone or combined, p<0.01) was “significant and similar beneficial effects”, the skin scaling ([1]; day 5 and day 6, Apremilast 25 mg/kg BID alone, or combined with fixed dose SCFA (60 + 1,100 mg/kg/day)) was “significantly inhibited skin scaling on day 5 (p<0.05) and day 6 (p<0.01)” and the skin scaling ([1]; day 6, fixed dose SCFA alone, Apremilast 12 mg/kg BID alone, or both combined) was “did not reach significance at day 6”.

From patent US20260216109A1, “TREATMENT OF SKIN DISORDERS WITH SHORT CHAIN FATTY ACIDS” (Temple University-Of The Commonwealth System of Higher …, priority 2023, published 2026)
